Tested on: ENaC
Assay: FLIPR assay of sodium transport in recombinant HEK cells over expressing ENaC
Format: cell-based, human
Conditions: recombinant HEK cells expressing ENaC
Experimental: Recombinant HEK293 cell line (expressing ENaC beta & gamma) SCNN1B (P618AY620L)+SCNN1G (P624stop) #24. were grown at 37 deg in the presence of CO2 and were cultured in M1 medium M1+0.5 mg/ml geneticin and 0.2 mg/ml hygromycin.
Functional Effects on ENaC via FLIPR in Cells Over Expressing ENaCa: A reverse transfection methodology was used to transfect the HEK recombinant cell line. 5 ul of siRNA (diluted in Optimem to the appropriate concentration) was mixed with 5 ul of the Gemini lipid transfection reagent diluted in Optimem in 384 well non-coated FLIPR plate. Plates were incubated at room temperature for 20 minutes to allow complex formation. Cells were harvested, spun down, diluted to 3×10^5/ml and plated out at 40 ul/well (12K/well) in 384 well plate format containing the transfection complex. The plates were incubated overnight for 20 hours. The cells were then transduced with BacMam virus expressing ENaC alpha (BacMam viruses expressing SCNN1A, GRITS 29703, titre 0.356×10^8/ml). 30 ul of virus was added (1.7%) 20K/well, MOI was approximately 1. Cells were incubated for 24 hours. On day of the FLIPR assay, media was aspirated, leaving 10 ul volume. 20 ul of dye per well was loaded (FMP2 Blue dye, R8181, MDS. For each pot, 133 ml Tyrodes buffer was diluted to make 1× stock prior to assay). The plate was incubated for 0.5 hours at room temperature and 10 ul of the compound added on-line prior to FLIPR read (FLIPR settings: protocol Na MP.fcf, with Exposure length 0.4 sec and Filter #2). Compound plate: 1 ul volume, column 1, 2 and 3 are 16, 4 and 0 uM amiloride final (1/200 dilution) (IC80, IC50 and ctrl).

Compound: N=C(N)NC(=O)c1nc(Cl)c(N)nc1N [Amiloride, reference compound]
- IC50 (read-out: IC50 of inhibitor in FLIPR assay): 4 µM
- IC80 (read-out: IC80 of inhibitor in FLIPR assay): 16 µM
